According to ChEMBL document CHEMBL3507680, “University of Dundee, Gates Library screen for HepG2 cell viability”:

Assay: Human HepG2 cell viability assay in 384 well format
Assay type: toxicity, cell-based
Set-up: dose 125 nL, time 70.5 hour; cytotoxicity at 70.5 h: concentration not given beside the values
Conditions: HepG2 cells, read-out: Inhibition

Row | Structure (SMILES) | cytotoxicity at 70.5 h
1 | O=C(c1ccco1)N1CCOCC2(C1)CN(c1ccccc1)C(=O)CO2 (stereo not drawn) | -5.76%
2 | Cn1cc(CN2CCCn3cnc(CN4CCCC4=O)c3C2)cn1 | -17.3%
3 | CCC1=N[C@@]2(CC[C@@H]3CN(C(=O)NCC(C)C)C[C@@H]32)C(=O)N1CC(C)C | -9.11%
4 | Cn1cnc2c1C(COCc1cccnc1)N(Cc1ccccn1)CC2 (stereo not drawn) | -3.62%
5 | CN1CCCC1(CCCc1cccnc1)C(=O)NCc1nccn1C (stereo not drawn) | -1.26%
6 | O=C(C1CCOCC1)N1CCCC1c1cncc(CN2CCCC2)n1 (stereo not drawn) | -0.0308%
7 | COCC(=O)N1CCN(C)CC(Cc2cc(N(C)C)ncn2)C1 (stereo not drawn) | -3.09%
8 | Cc1c[nH]c(C2CN(Cc3ccccc3C(=O)O)CCO2)n1 (stereo not drawn) | -1.83%
9 | CC(C)=CCCC1(C)C=Cc2c(cc(C)n(CC(=O)O)c2=O)O1 (stereo not drawn) | -3.4%
10 | Cc1ccc(CC2COCCN(S(=O)(=O)c3ccccc3)C2)nc1 (stereo not drawn) | -0.967%
11 | CCN(CC)S(=O)(=O)N1CCC(c2c(C(N)=O)sc3ccccc23)C1 (stereo not drawn) | -3.04%
12 | CC(C)c1cn(CC(=O)NC2CC(=O)N(CCc3ccccc3)C2)nn1 (stereo not drawn) | -3.95%
13 | CNC(=O)c1ccc(-c2ccc(CNS(=O)(=O)N(C)C)cc2)nc1C | -0.408%
14 | Cc1cccc(CNC(=O)CC2CCN(S(C)(=O)=O)CC2)n1 | -4.65%
15 | O=C(C1CCOCC1)N1C[C@H]2C[C@H](OCc3ccccc3)C[C@H]2C1 | -3.41%
16 | O=C(CC1CCN(c2cccnn2)CC1)NC1CCOCC1 | -17%
17 | CNC(=O)c1ccc(-c2ccc(CNC(=O)COC)cc2)nc1C | -10.8%
18 | Cc1cc(Cc2ccccc2F)cc(C2CCCNC2)n1 (stereo not drawn) | -1.65%
19 | CC(=O)N1CCCC1c1nccnc1NCc1cccnc1 (stereo not drawn) | -8.19%
20 | COCC(=O)N1CCCC1c1nc(C)c2c(n1)N(CC(C)C)C(=O)CC2 (stereo not drawn) | -6.03%
21 | CC(=O)N1CCC(c2cnc(NC3CCOCC3)cn2)CC1 | -6.84%
22 | O=C(O)c1ccccc1-c1ccc(CN2CCC(CO)C2)cc1 (stereo not drawn) | -6.69%
23 | CC(C)C[C@H](N)COc1cccc(F)c1Oc1cccc(Cl)c1 | 26.3%

Row | Structure (SMILES) | cytotoxicity at 70.5 h
24 | Cc1cnc(CCNC(=O)C2CN(C(=O)Cc3ccc(F)cc3)C2)s1 | 15.9%
25 | CCCN1CCCCCC1Cc1c(C(=O)NC)sc2ccccc12 (stereo not drawn) | 27.8%
26 | Cn1cnc2ccc(NC(=O)CC3CCN(C4CCCCC4)CC3)cc21 | -4.48%
27 | Cc1ccnc(C2CCN(c3ccnc(C)n3)C2)n1 (stereo not drawn) | -12.3%
28 | CN1C(=O)CO[C@H]2CN(C(=O)c3ccc4c(c3)CCCC4)C[C@@H]21 | 8.95%
29 | Nc1nc(N)c2c(n1)OC1(CCCN(Cc3nccs3)CC1)C2 (stereo not drawn) | -9.72%
30 | CC(=O)N1CCCCC[C@@H]2[C@@H]1[C@H](c1cccc(F)c1)CN2C(C)=O | -10.6%
31 | CC(=O)N1CCCCC[C@@H]2[C@@H]1[C@H](c1cccc(F)c1)CN2C(=O)C1CC1 | -3.31%
32 | CC(C)n1nnc(CC(=O)NCC2(c3ccccc3F)CCOCC2)n1 | -8.63%
33 | Nc1c(C(=O)C2CCCN(C(=O)C3CC3)C2)cnn1-c1ccc(F)cc1 (stereo not drawn) | -2.33%
34 | Cc1cc(C)nc(N2CCC(c3cc(CCO)[nH]n3)C2)n1 (stereo not drawn) | -12.4%
35 | O=C1CN(C(=O)C2CN(c3ccc(F)cc3)CCO2)CCN1 (stereo not drawn) | -7.29%
36 | NCCC(=O)NCC1(O)CCCN(c2ccnc3cccnc23)C1 (stereo not drawn) | -3.53%
37 | CC(=O)N1CC(C(=O)NCCc2ncc(C)s2)C1 | -5.34%
38 | c1ccc(Cc2cncc(C3CCCN3C3CCOCC3)n2)cc1 (stereo not drawn) | -6.45%
39 | Cc1cc(C)nc(N2CCC(Cn3cc(C(N)=O)cn3)CC2)n1 | -7.04%
40 | CN1CCCCC1CC(=O)Nc1ccc2ncn(C)c2c1 (stereo not drawn) | 13.5%
41 | Cc1cc(C(=O)N(C)C)nc(C2(C)CCCN2c2ccnc(C)n2)n1 (stereo not drawn) | -6.87%
42 | Cc1ccnc(C2CN(c3ccnc(C)n3)C2)n1 | -5.49%
43 | Cn1cc(CN2CCC(c3ccncc3)CC2)cn1 | -9.54%
44 | Cc1cc(C)nc(N2CCC(Cn3cc(C(=O)N(C)C)cn3)CC2)n1 | -3.57%
45 | Cc1cc(NCC2CCCCC2)n2ncnc2n1 | -2.65%
46 | NCCCC(=O)NCC1(O)CCCN(c2ccnc3cccnc23)C1 (stereo not drawn) | -4.51%

Row | Structure (SMILES) | cytotoxicity at 70.5 h
47 | Cc1ncc(-c2ccncc2)c(C2CCCN(C(=O)c3ccno3)C2)n1 (stereo not drawn) | 5.49%
48 | CS(=O)(=O)c1cncnc1C1CCCN(C(=O)Nc2ccc(F)cc2)C1 (stereo not drawn) | -4.34%
49 | CS(=O)(=O)c1cncnc1C1CCCN(C(=O)Cc2ccccc2F)C1 (stereo not drawn) | -7.69%
50 | Cc1nc(C2CCN(S(C)(=O)=O)CC2)nc(N2CCCC2)c1C | -3.13%
51 | O=C(c1cc(-c2cccnc2)[nH]n1)N1CCCC(c2cnccn2)C1 (stereo not drawn) | 12%
52 | Cc1cccc(NC(=O)c2cnc(C3CCCNC3)cn2)n1 (stereo not drawn) | -2.31%
53 | CN1CCCCC1c1cncc(N2CCC(O)CC2)n1 (stereo not drawn) | -0.469%
54 | COCC1CN(C(C)=O)CCN(c2cc(C)ncn2)C1 (stereo not drawn) | 10.4%
55 | CO[C@H]1C[C@@H]2CN(C(=O)c3cc4cccc(F)c4[nH]3)C[C@@H]2C1 | -6.67%
56 | CN1CCC(CCc2ccnc(NC(=O)c3ccccn3)c2)CC1 | 15.4%
57 | CC(C)N1CCCCC1c1cc(CO)[nH]n1 (stereo not drawn) | -3.81%
58 | CN1CCN(C(=O)CCCc2ccccc2)CC(O)(Cn2cccn2)C1 (stereo not drawn) | -2.15%
59 | CC(C)n1nccc1C(=O)N1CCC(c2nnsc2S(C)(=O)=O)CC1 | -6.33%
60 | O=C(Cc1ccn[nH]1)N1CCc2cc(Br)sc2C1 | -6.46%
61 | Cc1noc(C)c1CNC1CCN(c2ccccc2OC(F)F)C1 (stereo not drawn) | -3.18%
62 | CCOc1ccc(N(CCC#N)C(=O)c2ccc(OC)nc2)cc1 | 1.85%
63 | CC(NC(=O)NC1CCN(Cc2ccccn2)CC1)c1ccco1 (stereo not drawn) | -1.3%
64 | Cc1ccc(C(C)NC(=O)N2CCN(S(C)(=O)=O)CC2)o1 (stereo not drawn) | 1.52%
65 | CC(NC(=O)NC1CCN(Cc2ccccc2)CC1)c1nncn1C (stereo not drawn) | 2.2%
66 | CC(C)CN1CCC(C(=O)NCCNC(=O)c2ccoc2)CC1 | -1.22%
67 | CC(C)CN1CCC(C(=O)NCCNC(=O)c2ccccc2)CC1 | -4.76%
68 | CC(C)NC(=O)CCNC(=O)c1c(Br)c2ccccc2n1C | -0.338%
69 | N#Cc1cnn(C(=O)CCCOc2ccccc2Cl)c1N | 9.75%

Row | Structure (SMILES) | cytotoxicity at 70.5 h
70 | COCc1cccc(CNc2cnn(C(C)(C)C)c(=O)c2Cl)c1 | 41%
71 | Cc1nc(CC(=O)N2CCN(C)CC2c2ccccc2)cs1 (stereo not drawn) | -0.955%
72 | COc1ccccc1OCC(=O)n1ncc(C#N)c1N | 9.32%
73 | COCc1ccc(CNc2cnn(C(C)(C)C)c(=O)c2Cl)cc1 | 19.8%
74 | CC(=O)c1ccc(N2CCN(C(=O)NC(C)c3ccc(C)o3)CC2)cc1 (stereo not drawn) | -3.78%
75 | O=S(=O)(Nc1ccc(N2CCOCC2)cn1)c1ccc(F)cc1 | 9.02%
76 | CC(NC(C)(C)CN)c1ccccc1 (stereo not drawn) | -0.00601%
77 | Cc1ccc(CNC(C)c2cc(F)ccc2N2CCN(C)CC2)o1 (stereo not drawn) | 0.758%
78 | Cc1ccc(C)c(SCC(=O)Nc2cccc(C(=O)N(C)C)n2)c1 | 11.9%
79 | Cc1ccc(C)c(CC(=O)Nc2cccc(C(=O)N(C)C)n2)c1 | 5.58%
80 | Cc1cc(F)cc2c(NCC(C)(C)C(N)=O)c(C#N)cnc12 | 11.6%
81 | CCS(=O)(=O)NCCNc1c(C#N)cnc2c(C)cc(F)cc12 | 2.54%
82 | CC(C)(C)NC(=O)N1CCC(NC(=O)Cc2cccnc2)CC1 | -3.09%
83 | CCc1cccc(CC(=O)NC2CCN(C(=O)NC(C)(C)C)CC2)c1 | 1.52%
84 | N#CCCCS(=O)(=O)NC(=O)c1cccc(Cl)c1F | -2.7%
85 | Cc1csc(N2CCCN(C(=O)c3cccs3)CC2)n1 | 3.15%
86 | COc1cc(CC(=O)Nc2cccc(C(=O)N(C)C)n2)ccc1C | 46.5%
87 | CCOc1ccc(N(CCC#N)C(=O)c2ccc(SC)nc2)cc1 | -4%
88 | CC(NC(=O)NC1CCN(Cc2ccccn2)CC1)c1nncn1C (stereo not drawn) | -2%
89 | COc1ccc(N(C)C(=O)C2CN(C)CCO2)cc1F (stereo not drawn) | -12.3%
90 | Cn1ccnc1CN1CCCCC1c1nc(-c2ccccc2)no1 (stereo not drawn) | -10.6%
91 | COc1ccc2c(c1)CCCN2C(=O)c1cccc(N(C)C)c1 | 3.26%
92 | Cc1cc(C2CCCN2C(=O)COc2ccc(CC#N)cc2)no1 (stereo not drawn) | -7.35%

Row | Structure (SMILES) | cytotoxicity at 70.5 h
93 | O=C(Nc1c(N2CCCC2)cccc1N1CCCC1)c1ccccn1 | -12.8%
94 | O=C1OCCN1CCSc1nnnn1C1CCOCC1 | -17.6%
95 | COc1cc(Br)c(CNC(C)c2nnc3n2CCC3)cc1OC (stereo not drawn) | 10.6%
96 | Cc1nn(C)cc1-c1cncn1CCN(C)C1CCCC1 | -5%
97 | Cc1nc(Nc2nnc(C)s2)cc(C2CCCN2)n1 (stereo not drawn) | -6.91%
98 | O=C(O)C1(Cc2cccc(-c3cccs3)c2)CCCNC1 (stereo not drawn) | 14.3%
99 | CCn1ccnc1CN1CCN(c2cc(C)nc(C3CCCN3)c2)CC1 (stereo not drawn) | -5.1%
100 | Fc1ccc(-c2cnc(C3CCCN3)cn2)cc1 (stereo not drawn) | -2.54%
101 | Cn1cc([C@@H]2CN(S(=O)(=O)c3cccs3)C[C@H]2N)c2ccncc21 | 4.81%
102 | Cn1cc([C@@H]2CN(S(=O)(=O)c3ccccc3F)C[C@H]2N)c2ccncc21 | 19%
103 | Cc1ccc(S(=O)(=O)NC(C)(C)CN)c(F)c1 | -1.04%
104 | CCOc1c(Br)cc(CNCCc2nnc3n2CCCCC3)cc1OC | -10.5%
105 | c1cc(CN2CCC(c3ccc4c(c3)OCO4)CC2)ccn1 | -1.06%
106 | O=C(NCc1ccco1)[C@H]1C[C@H]2OCC[C@H]2N(C(=O)c2ccncc2)C1 | -12.4%
107 | CCOCC1CN(C(=O)CS(C)(=O)=O)Cc2cnn(C)c21 (stereo not drawn) | -14.4%
108 | Fc1cnc(N2CCO[C@H]3CN(CC4CCCC4)C[C@H]32)nc1 | -13%
109 | O=S(=O)(c1cccs1)N1CCCn2cnc(CN3CCCC3)c2C1 | 23.3%
110 | O=C(NC1CC1)[C@H]1C[C@H]2OCC[C@H]2N(CC2CCOCC2)C1 | 22.7%
111 | CN(Cc1cncnc1)Cc1cn2c(n1)CN(C1CCOC1)CC2 (stereo not drawn) | -13.2%
112 | CC(=O)N1CCC2(CC1)COCCN2CCN(C)C | -10.7%
113 | c1ccc(OC[C@]23COC[C@H]2CN(Cc2ccoc2)C3)nc1 | -12.9%
